# Test results as given in patent US5446066A, “Substituted (arylalkoxybenzyl)aminopropanamide derivatives and process for their preparation” (Farmitalia Carlo Erba S.r.l., priority 1993, dated 1995).
# Legend:
# [1] = antagonism of maximal electroshock seizures (MES test); format: in vivo; conditions: read-out: MES-ED50 (effective dose in 50% of treated animals)
# Description: The compounds of the invention are active on the central nervous system (CNS) and can be used in therapy, for example as antiepileptics, in the treatment of Parkinson's disease and as neuroprotective agents, e.g. in degenerative processes associated with normal ageing or pathological situations, such as brain ischemia; they can also be used as antidepressants, hypnotics and antispastic agents. The activity on the CNS of the compounds of the invention was evaluated on the basis of pharmacological methods, such as, for example, the antagonism of convulsions and lethality induced by intravenous injection of bicuculline in mice (Antiepileptic Drugs, D. M. Woodbury et al. eds., 2nd edition, Raven Press, New York, 1982), or the antagonism of maximal electroshock seizures (MES) (Woodbury, L. A. and Davenport V. D., Arch. Int. Pharmacodyn. Ther. 92; 97-104, 1952).
# (§1) For instance, the following Table 1 summarizes the activity and neurotoxicity data obtained in the MES test and in the rotorod test, respectively, for a representative group of compounds according to the present invention, in comparison with the prior art compound 2-[4-(3-phenylpropyl)oxybenzyl]aminopropanamide methanesulfonate (internal code FCE 27023) which is known from WO-90/14334
# ED50 means effective dose in 50% of treated animals
# in vivo = assay: in vivo
# Description: The neurotoxicity of the compound and of the reference anticonvulsants was assessed with the rotorod test (Dunan and Miye., J. Am. Pharm. Ass. Sci. Ed., 1957, 46, 208; Kinnard et al., J. Pharmacol. Exp. Ther. 1957, 121, 354; Horowitz. Nature, 1963, 200, 369).
# as §1
# TD50 means toxic dose in 50% of treated animals
# TI means therapeutic index (TD50 /ED50)
SMILES,ED50 [1],TD50 (in vivo),selectivity ratio (in vivo)
CC(NCc1ccc(OCCCc2ccccc2)cc1)C(N)=O (stereo not drawn) [compound 27023],8.8 mg/kg,584 mg/kg,66
CC(NCc1ccc(OCCCCc2ccccc2)cc1)C(N)=O (stereo not drawn) [compound 28243],12.4 mg/kg,1000 mg/kg,82
CC(NCc1ccc(OCCCCCc2ccccc2)cc1)C(N)=O (stereo not drawn) [compound 28244],12.5 mg/kg,1010 mg/kg,81
NC(=O)C(CO)NCc1ccc(OCCCc2ccccc2)cc1 (stereo not drawn) [compound 28245],8.6 mg/kg,863 mg/kg,100
